Consider eight molecules from patent publication US20250216399A1, “NONSPECIFIC REACTION INHIBITOR” (PHC CORPORATION, priority 2022, published 2025).

Data set [1] has as its system human IgG. Put plainly: Reaction inhibitory effect of IgG-binding nucleic acid aptamer on anti-human IgG antibody and human IgG, Bio-Layer Interferometry. To be noted: 0.3 mg/mL; not added 7.9093. The procedure:
For nucleic acid aptamers, the reaction inhibitory effect with or without PEG modification was confirmed using a model system to confirm the non-specific inhibitory effect in the same manner as in Example 2.
The test sample and measurements were performed under the same assay conditions as in Example 2. In this Example, the test sample and a non-specific reaction inhibitor were allowed to coexist in the measurement sample, and human IgG was absorbed in the sample solution. The measurements were carried out according to the operating manual attached to the OctetR2.
Anti-human IgG polyclonal rabbit antibody (manufactured by Dako) was diluted with PBS(−) to 25 μg/mL to prepare an anti-human IgG antibody solution. The sample solution used was human IgG at 1 mg/mL in PBS(−), with 20 μL of this test sample, and either the IgG-binding nucleic acid aptamer or the IgG-binding nucleic acid aptamer modified with 20 kDa PEG added to a final concentration of 0.3 mg/mL, and then prepared with reaction buffer (145 mmol/L NaCl, 5.4 mmol/L KCl, 0.8 mmol/L MgCl2, 1.8 mmol/L CaCl2, 20 mmol/L Tris (pH 7.6), 0.05% Tween 20) to make a total volume of 200 μL.
(In general: Biolayer interferometry detects binding as a change in optical thickness at a sensor tip.)

A further data set relates to human IgA. Put plainly: Reaction inhibitory effect on human IgA, Bio-Layer Interferometry (Octet R2), anti-human IgA antibody and human IgA. As to conditions: for Response: human IgA, not added 2.1381. In kind it is binding. The procedure: (§1) As a model system to confirm the non-specific inhibitory effect, an anti-human IgG antibody and human IgG, or an anti-human IgA antibody and human IgA were used, and the reaction inhibitory effect on the IgG-binding peptide or the IgA-binding peptide with smaller molecular weights than antibody fragments, with or without PEG modification, was confirmed.
(§2) The measurements were performed using Bio-Layer Interferometry (BLI) using Octet(trademark) R2 (manufactured by SARTORIUS), which was a biomolecular interaction analysis system. The basic principles of the Bio-Layer Interferometry are briefly explained below. When light of a specific wavelength is projected onto a layer of biomolecules fixed on the surface of a sensor chip, the light is reflected from both the surface of the biomolecular layer and the internal reference layer, resulting in an optical interference wave. When molecules in the measurement sample bind to the biomolecules on the surface of the sensor chip, the thickness of the layer at the tip of the sensor increases, causing a wavelength shift in the interference wave. By measuring this change in wavelength shift, it is possible to quantify and kinetically analyze in real time the number of molecules that bind to the biomolecules immobilized on the sensor chip surface. In this Example, the test sample and a non-specific reaction inhibitor were allowed to coexist in the measurement sample, and human IgG or human IgA was absorbed in the sample solution. The measurements were carried out according to the operating manual attached to the OctetR2.
(§3) As an antibody solution, an anti-human IgA polyclonal rabbit antibody (manufactured by Dako) was diluted with PBS(−) to 25 μg/mL to prepare an anti-human IgA antibody solution. As a sample solution, the test sample was human IgA adjusted to 250 μg/mL in PBS(−), and to 20 μL of this test sample, the IgA-binding peptide or the IgA-binding peptide modified with 20 kDa PEG was added to a final concentration of 25 μg/mL or 50 μg/mL, respectively, and the total volume was adjusted to 200 μL to prepare the R1.
Measurements using OctetR2 were performed in the same manner as for confirming the reaction inhibitory effect on human IgG.

Data set [2] deals with human IgG (polyclonal immunoglobulin G) (Homo sapiens). Briefly: BLI. As to conditions: upper case RNA, lower case DNA; 2'-F at U6, U9, C20, U21; LNA at A18; 5' amino C6 linker conjugated to 20 kDa PEG (Jenkem ME); response of IgG on immobilised anti-human IgG antibody with 0.3 mg/mL PEG-aptamer (7.9093 nm without inhibitor); indirect, inhibition of IgG-antibody reaction ….
Data set [3] concerns non-specific reaction substance (IgG) of sample A, human plasma. Put plainly: Non-specific reaction inhibitory effect, Bio-Layer Interferometry, sample A (human plasma) against anti-TAT antibody. It counts as binding. The procedure:
The measurement was carried out under the same assay conditions as described in Example 2. In this Example, sample A and a non-specific reaction inhibitor were allowed to coexist in the measurement sample, and the non-specific reaction substances were absorbed in the sample solution.
The antibody solution used was an anti-TAT antibody solution prepared by diluting the anti-TAT antibody used in the second reagent (hereinafter referred to as R2) of LPIA Genesis TAT, which was characterized by containing latex particles to which a monoclonal antibody with specific binding ability to TAT was immobilized, with PBS(−) to a concentration of 25 μg/mL. The sample solution was prepared by adding a final concentration of 25 μg/mL or 50 μg/mL of IgG-binding peptide or 20 kDa PEG-modified IgG-binding peptide as a non-specific reaction inhibitor to 20 μL of the test sample diluted 10-fold with PBS(−), and adjusting the total volume to 200 μL with R1.
Using the same assay conditions as those described in Example 3, the non-specific reaction inhibitory effects of the PEG-modified peptides described in Examples 2 and 3 and the prepared PEG-modified antibody fragment were compared. The amounts of non-specific reaction inhibitor added were 25 μg/mL, 50 μg/mL, 100 μg/mL, 200 μg/mL, or 400 μg/mL, and the test sample was the same as sample A in Example 3.
The assay was carried out under the same conditions as described in Example 3. As non-specific reaction inhibitors, sample solutions were prepared to which PEG-modified peptides chemically modified with 5 kDa, 10 kDa, 20 kDa, and 30 kDa PEG were added, and the non-specific reaction inhibitory effect of each was confirmed. The amounts of non-specific reaction inhibitors added were 5 μg/mL, 10 μg/mL, or 20 μg/mL, and the test sample was the same as Sample A in Examples 3 and 4.

For data set [4], the system named is non-specific reaction substances of sample A, human plasma. Put plainly: Non-specific inhibitory effect in latex agglutination method on automatic analyzer STACIA (LPIA Genesis TAT). The procedure: The non-specific inhibitory effect of the IgG-binding peptide and PEG-modified IgG-binding peptide used in Example 2 was confirmed by the latex agglutination method.
The measurements were performed using automated operation of an automatic analyzer, STACIA (manufactured by LSI Medience Corporation). In the STACIA measurement, two main operations were carried out. In the first operation, the sample to be measured was diluted with R1 and heated at 37° C. for 3.5 minutes. In the second operation, R2 was added to the reaction solution and the mixture was incubated at 37° C. for 6 minutes to induce latex agglutination. By optically monitoring the agglutination reaction, the amount of TAT or non-specific reaction substances in the samples to be measured was quantified. In this Example, the non-specific reaction inhibitor was added to R1 so that the concentration after sample addition was 0.05 mg/mL or 0.1 mg/mL, and non-specific reaction substances were absorbed during the first operation. […] The mixture ratio of the measurement sample, R1, and R2 was 20 μL:90 μL:90 μL. Latex agglutination was detected at a wavelength of 700 nm. The measured values were calculated by comparing the absorbance with a calibration curve obtained by measuring TAT of known concentrations. The test sample used was the same as sample A used in Examples 3 to 5.

The test system of data set [5] is human IgG. Put plainly: Reaction inhibitory effect on human IgG, Bio-Layer Interferometry (Octet R2), anti-human IgG antibody and human IgG. It counts as binding. To be noted: for Response: human IgG, not added 6.6462. As for the experimental part: as §1, §2
as §3, with “IgG” for “IgA”, “1 mg/mL” for “250 μg/mL”, “IgG-binding” for “IgA-binding”, “first reagent (hereinafter referred to as R1) of LPIA Genesis TAT (manufactured by LSI Medience Corporation), which was a thrombin-antithrombin III complex (hereinafter referred to as TAT) measurement reagent.” for “R1.”
The sample solution and the anti-human IgG antibody solution were added to the designated wells of a 96-well black plate (manufactured by Greiner Bio-One) at 200 μL per well. To the baseline, dissociation and washing wells, 200 μL of PBS(−) was added. This plate and a biosensor (Biosensor/ProL: manufactured by SARTRIUS) were placed in the designated positions of the OctetR2. After operating the OctetR2 under the conditions shown in Table 1 below and acquiring data, the wavelength shift change (Response) was calculated using the analysis software included with the OctetR2. The measurements were carried out at a temperature of 30° C.

Data set [6] addresses human IgA (human). Briefly: BLI (Octet R2) competition: human IgA on immobilised anti-human IgA antibody with 50 µg/mL of the peptide.
Data set [7] deals with human IgA (human). Briefly: BLI (Octet R2) competition: human IgA on immobilised anti-human IgA antibody with 25 µg/mL of the peptide.
[8] abbreviates: amount added 25 μg/mL, not added 5.7733.
The mark [9] stands for this setting: amount added 50 μg/mL, not added 5.7733.
Setting [10] is: amount added 0.05 mg/mL, not added 32.01.
Setting [11] is: amount added 0.1 mg/mL, not added 27.17.

Ends that are not written are not given here. PEG 20 kDa = 20 kDa PEG attached through the N-terminal amino group; l = locked nucleic acid (LNA); {C6NH2} = Amino C6 linker; d = 2'-deoxy (DNA); r = 2'-OH (RNA); f = 2'-fluoro

“IgG-binding nucleic acid aptamer: human IgG-binding nucleic acid aptamer of approximately 7.5 kDa, N(6)_ggAGGU(F)GcU(F)ccgaaaGGA(L)aC(F)U(F)cc (DNA GGAGGUGCUCCGAAAGGAACUCC; sugars from the 5' end ddrrrfrdfddddddrrldffdd, 5' {C6NH2}, backbone and methylation of C not given here; further chemistry not fully specified)”: the “Human IgG (Response)” value with human IgG [1] came out at 7.6691 nm.
As for “IgA-binding peptide: human IgA-binding peptide of approximately 1.8 kDa, amino acid sequence HMVCLSYRGRPVCFSL (SEQ ID NO: 2), reported for purification of human IgA [reference compound]”, the Response with human IgA (amount added 25 μg/mL) was 2.1805 nm; with human IgA (amount added 50 μg/mL), 2.2263 nm.
On to “GGAGGUGCUCCGAAAGGAACUCC [PEG-modified IgG-binding nucleic acid aptamer]”, for which, in data set [2], the activity amounted to 4.96 nm.
As to “PEG-modified IgA-binding peptide: IgA-binding peptide (SEQ ID NO: 2) with one molecule of 20 kDa PEG attached via the N-terminal amino group”, the figures for the Response with human IgA (amount added 25 μg/mL) and with human IgA (amount added 50 μg/mL) were 1.6061 nm and 1.5374 nm, respectively. The “reaction inhibitory effect compared with the unmodified peptide” value with human IgA (anti-human IgA antibody and human IgA) is “stronger reaction inhibitory effect”.
Regarding “PEG-modified IgG-binding peptide: IgG-binding peptide (SEQ ID NO: 1) with one molecule of 20 kDa PEG attached via the N-terminal amino group ({PEG 20 kDa}-DCAWHLGELVWCT; cysteine pairing not given here)”, the “effect in suppressing the non-specific reaction compared with the unmodified peptide” value in data set [3] is listed as “greater effect in suppressing the non-specific reaction than the unmodified peptide”. For the same molecule, the “effect on inhibiting non-specific reactions compared with PEG-modified antibody fragment” value in data set [3] (added in equal amounts) is given as “greater effect on inhibiting non-specific reactions than the PEG-modified antibody fragment”. Further, the Response worked out at 5.5469 nm in data set [3] (amount added 5 μg/mL, not added 6.0114); 5.0054 nm in data set [3] (amount added 10 μg/mL, not added 6.0114); 3.8339 nm in data set [3] (amount added 20 μg/mL, not added 6.0114); 3.0487 nm in data set [3] (setting [8]); 2.9829 nm in data set [3] (setting [9]); 3.1926 nm in data set [3] (amount added 100 μg/mL, not added 5.7733). The Response in data set [3] (amount added 200 μg/mL, not added 6.0744) was 2.8092 nm; in data set [3] (amount added 400 μg/mL, not added 6.0744), 3.0917 nm; in the data set on human IgG [5] (amount added 25 μg/mL), 3.1484 nm; in the data set on human IgG [5] (amount added 50 μg/mL) it was 2.6181 nm. In addition, the entries for the “Sample A measured value (TAT calibration curve)” value in data set [4] (setting [10]) and in data set [4] (setting [11]) were 10.84 ng/mL and 6.25 ng/mL, respectively. Further, the “reaction inhibitory effect compared with the unmodified peptide” value in the data set with human IgG [5] (anti-human IgG antibody and human IgG) is “stronger reaction inhibitory effect”.
Regarding “IgG-binding peptide: human IgG-binding peptide of approximately 1.5 kDa, amino acid sequence DCAWHLGELVWCT (SEQ ID NO: 1), known for purification of human IgG (human IgG binding peptide) [reference compound]”, the Response is given as 6.5522 nm in data set [3] (setting [8]), 6.6331 nm in data set [3] (setting [9]), 7.4221 nm in the data set with human IgG [5] (amount added 25 μg/mL) and 7.6293 nm in the data set on human IgG [5] (amount added 50 μg/mL). Also, the figures for the “Sample A measured value (TAT calibration curve)” value in data set [4] (setting [10]) and in data set [4] (setting [11]) were 37.7 ng/mL and 42.85 ng/mL, respectively.
In the case of HMVCLSYRGRPVCFSL [human IgA-binding peptide of approximately 1.8 kDa], the Response [nm] in the data set with human IgA (human) [6] stood at 2.23 nm; with human IgA (human) [7] it was 2.18 nm.

B1: IgA-binding peptide modified with 20 kDa PEG (peptide)
peptide: HMVCLSYRGRPVCFSL
modifications: one molecule of 20 kDa PEG (succinimide-activated) attached via the amino group at the N-terminus
For B1, the figures for the Response [nm] with human IgA (human) [6] and in the data set with human IgA (human) [7] were 1.54 nm and 1.61 nm, respectively.
